Test results as given in article PMC10726354, “Design, Synthesis, and Biological Evaluation of Small-Molecule-Based Radioligands with Improved Pharmacokinetic Properties for Imaging of Programmed Death Ligand 1” (Journal of Medicinal Chemistry, 2023).
Values joined by “and” are separate entries in the source; they are usually repeats but may differ in a detail not shown here. Equal entries are not always repeated.

How the values were obtained:
[1] = molecular target: T1, PD-L1 (Homo sapiens, UniProt Q9NZQ7); test: Real-time radioligand binding (LigandTracer) on PC3 PD-L1 cells; conditions: for Kd: real-time binding
T1 construct: expressed in transfected cells; host or cells: PC3 cells (human prostate carcinoma), stably transduced
Protocol: Real-time radioligand binding using the ligand tracer platform was performed, similar to our previously reported tracer candidates. As we aimed at reducing the albumin binding of the herein presented compounds, we performed measurements in the presence or absence of a mouse physiological concentration of BSA (2.5 g/dL).
For real-time binding to assess kinetics (association rate constant ka and dissociation rate constant kd) and dissociation constant (KD), LigandTracer (Yellow, Ridgeview Instruments AB, Sweden) was employed. Approximately 1.2 × 10^6 cells (in 3 mL medium) were seeded to one side of a Petri dish (Nunc) 1 day prior to experiments as described before.[45] Binding was then performed at room temperature (using CO2-independent medium, Gibco #18045088, Thermo Fisher Germany) with or without BSA (2.5%). First, association was determined by incubation with two concentrations (10 and 40 nM, 90 min each) of the ^64Cu-labeled PD-L1 ligands. Dissociation was then assessed by replacement with fresh medium for at least 2 h. Data were acquired in decay-corrected counts per second (CPS), and binding data were then evaluated using TraceDrawer (1.9.2, Ridgeview Instruments AB, Sweden). Traces were inspected for spikes and irregularities and then normalized to their own baseline (=0%) and highest value (=100%). Data were then fitted using a one-to-one interaction, accounting for the bulk effect.

[2] = test system: PC3 PD-L1-overexpressing tumor; test: Small-animal PET, uptake in PD-L1-overexpressing tumor; conditions: for SUVmax PC3 PD-L1 overexpressing tumor: tracer only; for SUVmax PC3 PD-L1 overexpressing tumor +block: blocker i.v. before tracer: Cu-1 100 nmol 1, Cu-2 100 nmol 2, Cu-3 1000 nmol 4, Cu-4 500 nmol 4, Cu-6 250 nmol 1 (~5 min prior), Cu-5 100 nmol 5 (~30 min prior)
Protocol: (§1) Changes are reported as % change of the SUVmax of the PD-L1 expressing over the respective value of the mock tumor. Similarly, the effect of blocking is reported as % change of the SUVmax of the animal injected with cold compound over that of the animal that received tracer only.
(§2) Animal experiments were performed in accordance with the guidelines of the German Regulations for Animal Welfare, approved by the Saxonian Ethical Committee for Animal Experiments (reference number DD24.1-5131/449/49). Male athymic NMRI-nude mice (Rj: NMRI-Foxn1^nu/nu, Janvier Laboratories, Le Genest-Saint-Isle, France) between 8 and 22 weeks of age were used. Under general anesthesia, [∼10% desflurane (Baxter, Deerfield, IL, USA) in 30 vol % oxygen + air] and warming, the animals were subcutaneously injected with 3–5 × 10^6 PC3-PD-L1 and PC3-mock cells [in 50 μL PBS +50 μL Matrigel (Corning, Glendale, USA)] into the right and left thigh, respectively. Tumor growth was monitored three times a week by caliper measurements, and mice with tumor sizes above 7 mm were included in the experiments.
(§3) For PET studies, general anesthesia was induced as described above. PET and X-ray computed tomography (CT) were performed in a dedicated small animal nanoScan PET/CT scanner, with four animals imaged simultaneously (Mediso, Budapest, Hungary). CT images were employed for attenuation correction and anatomical referencing. Animals received three individual scans corresponding to 0–2 h (dynamic) and 4.5 and 24 h (static) postinjection.
(§4) PD-L1 radiotracer candidates (in 300 μL sterile 0.9% NaCl/HEPES buffer, pH 6–7, between 7 and 12 MBq, molar activities > 12 GBq/μmol) were delivered over 30 s i.v. (lateral tail vein) and PET acquisition started simultaneously. For blocking condition, a defined quantity of compound (the same unlabeled compound, one from the same series or BMS-1166) was diluted in sterile saline and injected i.v. approximately 5 min prior to the radiotracer. Animals not subjected to blocking were injected with vehicle at the same time.
(§5) Three-dimensional list mode data were binned using the 400–600 keV energy window and sorted into 36 time frames (15 × 10 s, 5 × 30 s, 5 × 60 s, 4 × 300 s, 3 × 600 s, 4 × 900 s). Time frames were reconstructed using the Tera-TomoTM 3D algorithm applying a voxel size of 0.4 mm and corrections for decay, scatter, and attenuation.
(§6) Three-dimensional volumes of interest were delineated applying fixed thresholding at 35% of the measured maximum intensity. Standardized uptake values (SUV = [MBq detected activity/mL tissue]/[MBq injected activity/g body weight], […]) were determined in selected volumes of interest, among these PD-L1 and mock tumors.
(§7) 14. In vivo: PET- SUV data
(§8) Standardized uptake values (SUVmax)
(§9) Supplementary table 1: In vivo standardized uptake values (SUVmax ± standard deviation) of 64Cu-labeled third series compounds [64Cu]Cu-1-6 at 1.5 (1–2), 4.5 (4–5) and 24.5 (24–25) hours
(§10) post injection (p.i.). Compounds used for blocking are described for each tracer and were intravenously injected in sterile saline at stated time before the radiotracer. Animals designated for
(§11) tracer-only received matched type and volume of vehicle at the same time.

[3] = test system: PC3 mock tumor; test: Small-animal PET, uptake in mock tumor; conditions: for SUVmax PC3 mock tumor: tracer only; for SUVmax PC3 mock tumor +block: blocker i.v. before tracer: Cu-1 100 nmol 1, Cu-2 100 nmol 2, Cu-3 1000 nmol 4, Cu-4 500 nmol 4, Cu-6 250 nmol 1 (~5 min prior), Cu-5 100 nmol 5 (~30 min prior); for blocking effect on SUVmax in the mock tumor: 24–25 h p.i., blocker: Cu-1, Cu-2 100 nmol unlabeled compound, Cu-3 1000 nmol 4
Protocol: as §1, §2, §3, §4, §5, §6, §7, §8, §9, §10, §11

[4] = Radiotracer production data: stability of the product to in vivo experiments; format: physicochemical
[5] = Proteolytic stability in human serum, radio-HPLC; format: in vitro ADME; conditions: 37 °C, 1 h
Protocol: Potential degradation of the ^64Cu-labeled radiotracers by proteolysis was investigated by incubation in human serum at 37 °C for up to 48 h. At three different time points (1, 24, and 48 h), a sample was withdrawn, and serum proteins were precipitated. The radio-HPLC chromatograms of all ^64Cu-labeled radiotracers (Figure S111A–D, system D) show a major peak at ∼6.4–6.7 min indicating the radiotracers. After 1 h, the radiotracers [^64Cu]Cu-3–6 are 94.1, 98.3, 94.0, and 96.3% intact, respectively.
Similar to PBS stability studies, the mixture containing the radiolabeled compound was diluted 1:10 with human serum. The solution was incubated at 37 °C with shaking at 300 rpm. At each time point (1, 24, and 48 h), an aliquot was withdrawn and added to a double amount of “supersol” (water containing 20% v/v EtOH, 5% v/v 5 mM aqueous EDTA, 0.5% v/v Triton X-100, 0.1% m/v saponin, 0.05% v/v 0.5 mM aqueous o-phenanthroline) to precipitate serum proteins. The suspension was cooled on ice for 5 min and then centrifugated for 5 min at 12,000g. A small amount of the supernatant was analyzed by radio-HPLC (PerkinElmer, Massachusetts, United States system D, Supporting Information). Evaluation and graphical plotting were performed with OriginPro 9.0.

[6] = medium only (no BSA), n = 2, mean ± S.D.
[7] = medium only (no BSA), n = 2, mean ± S.D., room temperature
[8] = 1–2 h (1.5 h) p.i., blocker: Cu-3 1000 nmol 4, Cu-4 500/1000 nmol 4, Cu-5 100 nmol 5, Cu-6 250 nmol BMS-1166
[9] = 4–5 h (4.5 h) p.i., blocker: Cu-3 1000 nmol 4, Cu-4 500/1000 nmol 4, Cu-5 100 nmol 5, Cu-6 250 nmol BMS-1166
[10] = 24–25 h (24.5 h) p.i., blocker: Cu-1, Cu-2 100 nmol unlabeled compound, Cu-3 1000 nmol 4, Cu-4 500/1000 nmol 4, Cu-5 100 nmol 5, Cu-6 250 nmol BMS-1166

T1 sequence (Q9NZQ7 19-290): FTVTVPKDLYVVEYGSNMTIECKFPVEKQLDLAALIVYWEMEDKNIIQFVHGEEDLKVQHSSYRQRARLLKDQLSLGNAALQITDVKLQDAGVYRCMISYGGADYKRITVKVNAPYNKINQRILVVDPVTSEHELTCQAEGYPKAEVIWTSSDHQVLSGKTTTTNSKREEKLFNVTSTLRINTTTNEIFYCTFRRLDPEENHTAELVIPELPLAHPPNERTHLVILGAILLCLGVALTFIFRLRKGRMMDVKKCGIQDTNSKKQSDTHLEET

Compound | Bmax [normalized (%)] ([1]; medium + 2.5% BSA, n = 1) [%] | ka (association rate constant) ([1]; medium + 2.5% BSA, n = 1) [M/s] | Bmax [normalized (%)] [1, 6] [%] | ka (association rate constant) [1, 7] | Kd ([1]; medium + 2.5% BSA, n = 1) [nM] | Kd [1, 6] | SUVmax PC3 PD-L1 overexpressing tumor ([2]; 1.5 (1–2) hours p.i.) | SUVmax PC3 PD-L1 overexpressing tumor +block ([2]; 1.5 (1–2) hours p.i.) | SUVmax PC3 PD-L1 overexpressing tumor ([2]; 4.5 (4–5) hours p.i.) | SUVmax PC3 PD-L1 overexpressing tumor +block ([2]; 4.5 (4–5) hours p.i.) | SUVmax PC3 PD-L1 overexpressing tumor ([2]; 24.5 (24–25) hours p.i.) | SUVmax PC3 PD-L1 overexpressing tumor +block ([2]; 24.5 (24–25) hours p.i.) | SUVmax PC3 mock tumor ([3]; 1.5 (1–2) hours p.i.) | SUVmax PC3 mock tumor +block ([3]; 1.5 (1–2) hours p.i.) | SUVmax PC3 mock tumor ([3]; 4.5 (4–5) hours p.i.) | SUVmax PC3 mock tumor +block ([3]; 4.5 (4–5) hours p.i.) | blocking effect on SUVmax in the mock tumor [3] [%] | SUVmax PC3 mock tumor ([3]; 24.5 (24–25) hours p.i.) | SUVmax PC3 mock tumor +block ([3]; 24.5 (24–25) hours p.i.) | Stability of the product to in vivo experiments [4] [%] | further results
Cc1c(COc2cc(OCc3cncc(C#N)c3)c(CN[C@@H](CS(=O)(=O)O)C(=O)NCCS(=O)(=O)O)cc2Cl)cccc1-c1cccc(OCc2cn(CCCN3CCN(C(=O)[C@H](CS(=O)(=O)O)NC(=O)CC[C@H](C(=O)O)N4CCN(CC(=O)O)CCN(CC(=O)O)CC4)CC3)nn2)c1C.[64Cu+2] [[^64Cu]Cu-1] | 76.2 | 1410 | 186 ± 40.2 | (2.85 ± 0.07) × 10^3 (M s)^−1 | 119 | 60 nM and 60.2 nM | 1–1.5 | 1.3 | 1.1 | 1.0 | 1.4 | 1.1 | 1.0 | 1.4 | 0.8 | 1.0 | −41 to −54 | 1.2 | 0.7 | > 99 | fold change of real-time binding affinity in presence vs absence of BSA ([1]; in either direction): ≤ 2 fold; SUVmax PC3 PD-L1 overexpressing tumor ([2]; 1.5 (1–2) hours p.i., listed as [64Cu]Cu-1): 1.5
Cc1c(COc2cc(OCc3cncc(S(C)(=O)=O)c3)c(CN[C@@H](CS(=O)(=O)O)C(=O)NCCS(=O)(=O)O)cc2Cl)cccc1-c1cccc(OCc2cn(CCCN3CCN(C(=O)[C@H](CS(=O)(=O)O)NC(=O)CC[C@H](C(=O)O)N4CCN(CC(=O)O)CCN(CC(=O)O)CC4)CC3)nn2)c1C.[64Cu+2] [[^64Cu]Cu-3] | 46.6 | 2970 | 95.9 ± 6.49 | (6.59 ± 0.50) × 10^3 (M s)^−1 | 54.3 | 21 nM and 20.9 nM | 3.5 | 1.0 ± 0.1 | 2.6 ± 0.1 | 0.7 ± 0.3 | 1.35 | 0.65 ± 0.05 | 0.85 ± 0.05 | 0.80 ± 0.1 | 0.55 ± 0.15 | 0.55 ± 0.05 | 36 | 0.7 ± 0.2 | 0.45 ± 0.05 | > 99 | intact radiotracer in human serum after 1 h [5]: 94.1%; blocking effect: % change of SUVmax in PD-L1 tumor vs tracer-only [2, 8]: −71%; % change of SUVmax of the PD-L1 expressing tumor over the mock tumor ([2]; 1–2 h p.i.): 311%; SUVmax PC3 PD-L1 overexpressing tumor ([2]; 1.5 (1–2) hours p.i., listed as [64Cu]Cu-3): 3.5 ± 0.2; blocking effect: % change of SUVmax in PD-L1 tumor vs tracer-only [2, 9]: −73%; % change of SUVmax of the PD-L1 expressing tumor over the mock tumor ([2]; 4–5 h p.i.): 372%; blocking effect: % change of SUVmax in PD-L1 tumor vs tracer-only [2, 10]: −52%; % change of SUVmax of the PD-L1 expressing tumor over the mock tumor ([2]; 24–25 h p.i.): 93%; SUVmax PC3 PD-L1 overexpressing tumor ([2]; 24.5 (24–25) hours p.i., listed as [64Cu]Cu-3): 1.35 ± 0.15; blocking effect of BMS-1166 on SUVmax / tumor uptake ([2]; any time point, Cu-3: 750 nmol BMS-1166 intraperitoneally 60 min prior, Cu-6: 250 nmol BMS-1166 5 min before): no effect; blocking effect in the mock tumor ([3]; 1–2 and 4–5 h p.i., 1000 nmol unlabeled compound 4): negligible
Cc1c(COc2cc(OCc3cncc(S(C)(=O)=O)c3)c(CN[C@@H](CS(=O)(=O)O)C(=O)NCCP(=O)(O)O)cc2Cl)cccc1-c1cccc(OCc2cn(CCCN3CCN(C(=O)CC[C@H](C(=O)O)N4CCN(CC(=O)O)CCN(CC(=O)O)CC4)CC3)nn2)c1C.[64Cu+2] [[^64Cu]Cu-4] | 883 | 230 | 846 ± 451 | (0.56 ± 0.35) × 10^3 (M s)^−1 | 744 | 201 ± 149 nM | 1.97 ± 0.23 | 0.85 ± 0.05 | 1.2 ± 0.4 | 1.05 ± 0.35 | 2.0 ± 0.1 | 1.1 ± 0.1 | 0.8 ± 0.10 | 0.65 ± 0.05 | 0.45 ± 0.05 | 0.6 ± 0.2 |  | 1.25 ± 0.15 | 0.8 ± 0.3 | > 99 | intact radiotracer in human serum after 1 h [5]: 98.3%; blocking effect: % change of SUVmax in PD-L1 tumor vs tracer-only [2, 8]: −57%; % change of SUVmax of the PD-L1 expressing tumor over the mock tumor ([2]; 1–2 h p.i.): 146%; blocking effect: % change of SUVmax in PD-L1 tumor vs tracer-only [2, 9]: −13% and −12%; % change of SUVmax of the PD-L1 expressing tumor over the mock tumor ([2]; 4–5 h p.i.): 166%; blocking effect: % change of SUVmax in PD-L1 tumor vs tracer-only [2, 10]: −45%; % change of SUVmax of the PD-L1 expressing tumor over the mock tumor ([2]; 24–25 h p.i.): 60%
